Here are results for five molecules from patent US20240343699A1, “DERIVATIVES OF SUBSTITUTED MORPHOLINES AND USES THEREOF” (Supernus Pharmaceuticals, Inc., priority 2023, published 2024).

In one assay the test system is prepulse inhibition. In words: Prepulse inhibition (PPI) of the auditory startle response, apomorphine-impairment model. The following applies: for % PPI (mean ± SEM): averaged across prepulse levels.
Another assay relates to anxiety-like behavior. In words: Elevated plus maze (EPM). Format: in vivo, male Wistar rats. Particulars: for Closed arm entries / Closed arm returns / Head dips in open arms / Stretch-attend postures / Time in closed arms / Time in open arms / Total arm entries / % Time in open arms / Open Arm Entries / Total distance travelled: 0.5 mg/kg i.p. 30 min before testing; for Closed arm entries / Closed arm returns / Head dips in open arms / Stretch-attend postures / Time in closed arms / Time in open arms / Total arm entries: mean; for % Time in open arms / Open Arm Entries / Total distance travelled: mean ± S.E.M.

A further assay relates to sleep/wake and cataplexy. The class given is in vivo, male DTA mice. Particulars: amphetamine 2 mg/kg i.p.
The test system of the next assay is behavioral signature. In words: SmartCube phenotypic screening (class/subclass and DRFA similarity analysis). The class given is in vivo, male C57/B16 mice. The protocol: A study was conducted to evaluate the CNS-like efficacy of novel test compounds using the SmartCube® System.
Animals. Male C57/B16 mice from Taconic Laboratories (Germantown, NY) were used. Upon receipt, mice were group-housed in OPTIMice® ventilated cages with 4 mice per cage. Mice were acclimated to the colony room for at least one week prior to test, and subsequently tested at approximately 8-9 weeks of age. All animals were examined, handled, and weighed prior to initiation of the study to assure adequate health and suitability and to minimize nonspecific stress associated with manipulation. During the course of the study, 12/12 light/dark cycles were maintained. The room temperature was 20-23° C. with a relative humidity maintained between 30-70%. Chow and water were provided ad libitum for the duration of the study.
Test compounds. All compounds were administered orally at a dose volume of 10 mL/kg, 20 minutes prior to testing. Formulations were prepared fresh on day of testing and dosing was completed within one hour of formulation. Compounds were prepared according to the table below. Twelve mice were used in each treatment group:
SmartCube®. The SmartCube® system is designed to and can successfully measure numerous spontaneous behaviors and response to challenges in the same testing environment. The hardware includes force sensors and a number of aversive stimuli to elicit behavior. Three high-resolution video cameras provide constant 3D view of the mouse in the SmartCube® apparatus (SC) throughout the entire testing period. During the 45-minute test session the mice are exposed to a sequence of challenges. The cubes are cleaned between each run.
Digital videos of the subjects were processed through computer segmentation algorithms to fit geometrical models to each mouse frame image. The resulting fitted parameters were then analyzed using behavioral classifier algorithms to extract behavioral states, such as rearing, locomotion, and immobility. The data obtained in this way was used to define a drug signature for PGI's known reference compounds and establish a therapeutic class signature against which a test sample can be compared.
The data mining effort utilizes several analytical methods including Bayesian probabilistic density models and Decision trees. The algorithms consider ˜2,600 measures including frequency and duration of behavioral states such as grooming, rearing, etc., and many other features obtained during the test session.
Two major types of analyses are routinely conducted: Class and subclass.
Each reference drug was tested at multiple doses appropriate for that drug in mice.
Multiple analyses of the data were performed to quantitatively produce independent predictions of drug class, and drug subclass. The behavioral signatures of the test drugs were evaluated using these classifiers to predict potential therapeutic utility.
The results for the class and subclass analyses are presented as standardized bar charts with percentages that sum to 100 for each dose.
Similarity Analysis Using “Clouds Framework”. The outcome from SmartCube® is a large set of features (behavioral parameters) that can be used for various analyses. […] Therefore, we formed statistically independent combinations of the original features (further referred to as de-correlated features). Each de-correlated feature extracted information from the whole cluster of the original features, so the new feature space would have lower dimensionality. Next, we applied a proprietary feature ranking algorithm to score each feature for its discrimination power (ability to separate the two groups, e.g. vehicle from treatment). Ranking is an important part of our analyses because it weighs each feature change by its relevance. We applied a feature ranking algorithm, derived from support vector in the support vector machine learning method, to rank each feature.

Setting [1] is: vehicle + apomorphine 0.5 mg/kg s.c.
Setting [2] is: DRFA dose by dose, maximum (COMPOUND A: 90 and 120 mg/kg).
Setting [3] is: haloperidol 0.3 mg/kg + apomorphine.

Where a name gives a salt, the structure may show the parent alone.

Experimental for prepulse inhibition: Four standard startle chambers (San Diego Instruments, San Diego, CA) were used. […] The tube is mounted on a plastic frame, under which a piezoelectric accelerometer is mounted, which records and transduces the motion of the tube. Three days before drug testing the experimental subjects were each placed in one of the startle test chambers for a period of 10 minutes (without any startle stimuli) as an initial period of acclimation to the apparatus. Two days before drug testing the animals were again placed in the test chamber and then exposed to 12 startle stimuli and to each prepulse level 3 times (see below). This procedure was done to reduce the highly variable responses to the initial exposures to the startle stimuli as well as to ensure that the prepulse stimuli (alone) had no significant effect on the startle response. One day before drug testing, a full 60 trial PPI test session (as subsequently described for the drug testing experiments, see below) was conducted for all experimental subjects.
On the day of drug testing the rats were transported to the startle chamber room and left undisturbed for at least 30 min. […] After this period, the rats received 12 startle trials, 12 no-stimulus trials, and 12 trials of each of the prepulse/startle trials (see below) for a total of 60 trials. The intertrial interval ranged from 10 to 30 s, and the total session lasted about 25-30 min. The startle trials consisted of single 120 dB white noise bursts lasting 20 ms.
The prepulse inhibition trials consisted of a prepulse (20 ms burst of white noise with intensities of 75, 80, or 85 dB) followed, 100 ms later, by a startle stimulus (120 dB, 20 ms white noise). During the no-stimulus trial, no startle noise was presented, but the movement of the rat was recorded. This represented a control trial for detecting differences in overall activity. The 60 different trials were presented pseudo-randomly, ensuring that each trial was presented 12 times and that no two consecutive trials were identical. The resulting movement of the rat in the startle chamber was measured during 100 ms after startle stimulus onset (sampling frequency 1 kHz), rectified, amplified, and fed into a computer that determined the maximal response that occurred during the 100-ms period. Basal startle amplitude was determined as the mean amplitude of the 12 startle trials. Prepulse inhibition was calculated according to the formula 100−100%×(PPx/P120), in which PPx is the mean of the 12 prepulse inhibition trials (i.e., for each individual prepulse level), and p120 is the basal startle amplitude. The average level of PPI was also calculated (average of the responses to pp75, pp80, or pp85) and analyzed separately.

On to `CN1CCc2cccc3c2[C@H]1Cc1ccc(O)c(O)c1-3` [APO, apomorphine, reference compound], for which the “effect on PPI compared to vehicle” value with prepulse inhibition (apomorphine 0.5 mg/kg s.c., all three prepulse levels) is reported as “significantly (p<0.05) diminished PPI”. In the assay with prepulse inhibition (setting [1]), the “Acoustic Startle (AU) (mean ± SEM)” value came out at 1546.1 ± 260.5 AU and the “% PPI (mean ± SEM)” value is reported as 33.4 ± 5.5 %.
Regarding `Cc1ncc2n1-c1ccc(Cl)cc1C(c1ccccc1F)=NC2` [midazolam], in the assay on anxiety-like behavior (Study 1), the Closed arm entries is 14.13, the Closed arm returns was found to be 1.38, the “Head dips in open arms” value stood at 7.00 and the Stretch-attend postures is given as 18.88. Also, in the assay on anxiety-like behavior (Study 1), the “Time in closed arms” value came out at 247.54 s, the “Time in open arms” value was 18.47 s, the Total arm entries is 16.75 and the “% Time in open arms” value came to 6.16 ± 1.96 %. In addition, in the assay on anxiety-like behavior (Study 1), the “Open Arm Entries” value was 2.63 ± 0.78 and the Total distance travelled is 2064.55 ± 111.02 cm. Besides, in the assay with anxiety-like behavior (Study 2), the Closed arm entries worked out at 13.89, the Closed arm returns is on record as 1.44, the “Head dips in open arms” value came out at 5.67 and the Stretch-attend postures is recorded as 20.33. Besides, in the assay on anxiety-like behavior (Study 2), the “Time in closed arms” value amounted to 259.11 s, the “Time in open arms” value is 18.38 s, the Total arm entries was determined as 16.22 and the “% Time in open arms” value amounted to 6.13 ± 1.80 %. In the assay with anxiety-like behavior (Study 2), the “Open Arm Entries” value turned out to be 2.33 ± 0.60 and the Total distance travelled was 2052.96 ± 791.05 cm. The anxiolytic activity result in the assay on anxiety-like behavior (midazolam 0.5 mg/kg i.p., both studies) is “exhibited anxiolytic activity”.
Turning to `C[C@H](N)Cc1ccccc1` [Amphetamine, d-Amphetamine sulfate, reference compound], in the assay on sleep/wake and cataplexy, the LMA result was “overall increase in LMA”; the “Levels of C” value is “generally unaffected”; the “W and NREM time” value was “increased W and decreased NREM”; the “latency to sleep onset” value was “increased latency to the onset of both NREM and REM sleep”.
As for `CCOc1ccccc1OCC1CNCCO1` (racemic) [Viloxazine, (R,S)-2-[(2-ethoxyphenoxy)methyl]morpholine, reference compound], the “behavioral activity (class/subclass analysis)” value with behavioral signature (15 mg/kg PO) is listed as “low behavioral activity”; with behavioral signature (30 mg/kg PO) it was “moderate activity”; in the assay on behavioral signature (60 and 90 mg/kg PO), “high activity”. For the same molecule, in the assay on behavioral signature (setting [2]), the proximity to donepezil entry was “around 100%”. Further, the proximity to thioperamide entry with behavioral signature (setting [2]) is reported as “around 100%”. Also, the proximity to memantine in the assay on behavioral signature (DRFA dose by dose, maximum reached) is 57%.
Turning to `O=C(CCCN1CCC(O)(c2ccc(Cl)cc2)CC1)c1ccc(F)cc1` [HAL, haloperidol, reference compound], in the assay on prepulse inhibition (setting [3]), the “Acoustic Startle (AU) (mean ± SEM)” value stood at 1774.3 ± 770.6 AU and the “% PPI (mean ± SEM)” value is 55.2 ± 6.3 ^+ %. In the assay with prepulse inhibition (haloperidol 0.3 mg/kg, 75, 80 and 85 dB prepulse levels), the “effect on apomorphine-induced PPI deficit” value is on record as “significantly antagonized the effects of apomorphine on PPI”.
